Values after ≈ are worked out from the molar mass of the structure shown. Active and inactive are the calls of the source. No cut-off for these calls is given here.
Assays:
[1] = system: Staphylococcus aureus; assay: Antibacterial activity against methicillin-resistant Staphylococcus aureus infected in BALB/c mouse wound model assessed as reduction in bacterial load at 20 to 80 mg/kg administered topically on days 0, 3 and 6 measured after 6 days; format: functional, organism-based; conditions: dose 20-80 mg/kg, route top, time 6.0 day
[2] = system: Caco-2; assay: Cytotoxicity against human Caco-2 cells assessed as cell viability upto 8 ug/ml incubated for 6 hrs by LDH assay; format: toxicity, cell-based; conditions: caco-2, 6 h, dose < 8 µg/ml
[3] = system: Staphylococcus aureus; assay: Inhibition of resistance development in Staphylococcus aureus USA300 incubated for 24 hrs measured after 14 passages by broth microdilution method; format: functional, organism-based
[4] = system: Staphylococcus aureus; assay: Antibacterial activity against Staphylococcus aureus USA300 incubated for 16 to 24 hrs by broth microdilution method; format: functional; conditions: time 16-24 hrs
[5] = system: Klebsiella pneumoniae; assay: Antibacterial activity against Klebsiella pneumoniae E8.31 incubated for 16 to 24 hrs by broth microdilution method; format: functional; conditions: time 16-24 hrs
[6] = system: Staphylococcus aureus; assay: Antibacterial activity against Staphylococcus aureus USA300 assessed as acceleration of TCA cycle measured by decrease in NAD+/NADH ratio upto 0.25 ug/ml incubated for 5 hrs; format: functional, organism-based; conditions: dose <= 0.25 µg/ml
[7] = system: Escherichia coli; assay: Bactericidal activity against Escherichia coli ATCC 25922; format: functional
[8] = system: Listeria monocytogenes; assay: Bactericidal activity against Listeria monocytogenes EGD measured upto 24 hrs by time-kill assay; format: functional, organism-based
[9] = system: Staphylococcus aureus; assay: Disruption of cell membrane integrity in Staphylococcus aureus USA300 assessed as irregular cell structures at 4 to 8 times MIC by TEM/SEM analysis; format: functional, organism-based
[10] = system: Staphylococcus aureus; assay: Antibacterial activity against Staphylococcus aureus NCTC 8325-4 incubated for 16 to 24 hrs by broth microdilution method; format: functional; conditions: time 16-24 hrs
[11] = system: A549; assay: Cytotoxicity against human A549 cells assessed as cell viability upto 8 ug/ml incubated for 6 hrs by LDH assay; format: toxicity, cell-based; conditions: a549, 6 h, dose < 8 µg/ml
[12] = system: Escherichia coli; assay: Antibacterial activity against Escherichia coli ATCC 25922 incubated for 16 to 24 hrs by broth microdilution method; format: functional; conditions: time 16-24 hrs
[13] = system: Staphylococcus aureus; assay: Bactericidal activity against Staphylococcus aureus NCTC 8325-4; format: functional
[14] = system: Staphylococcus aureus; assay: Inhibition of biofilm formation in Staphylococcus aureus USA300 upto 0.13 ug/ml incubated for 24 hrs by crystal violet staining based analysis; format: functional, organism-based; conditions: dose <= 0.13 µg/ml
[15] = system: Staphylococcus aureus; assay: Antibacterial activity against Staphylococcus aureus USA300 at 2 times MIC measured upto 24 hrs in presence of alpha-tocopherol; format: functional, organism-based
[16] = system: Staphylococcus aureus; assay: Bactericidal activity against Staphylococcus aureus USA300; format: functional
[17] = system: Staphylococcus aureus; assay: Induction of cell permeability in Staphylococcus aureus USA300 upto 0.13 uM by PI dye based analysis; format: functional, organism-based
[18] = system: Staphylococcus aureus; assay: Antibacterial activity against methicillin-resistant Staphylococcus aureus infected in BALB/c mouse wound model assessed as decrease in wound area at 20 to 80 mg/kg administered topically on days 0, 3 and 6 measured after 12 days; format: functional, organism-based; conditions: dose 20-80 mg/kg, route top, time 12.0 day
[19] = system: Staphylococcus aureus; assay: Disruption of cell membrane integrity in Staphylococcus aureus USA300 assessed as swelling at 4 to 8 times MIC by TEM/SEM analysis; format: functional, organism-based
[20] = system: Staphylococcus aureus; assay: Effect on tyrosine metabolism in Staphylococcus aureus USA300 at 4 times MIC by KEGG analysis; format: functional, organism-based
[21] = system: Staphylococcus aureus; assay: Disruption of cell membrane integrity in Staphylococcus aureus USA300 assessed as increase in red fluorescence at 1 to 4 times MIC by SYTO-9/PI dye based CLSM analysis; format: functional, organism-based
[22] = system: Staphylococcus aureus; assay: Bactericidal activity against Staphylococcus aureus ATCC 25923; format: functional
[23] = system: Staphylococcus aureus; assay: Inhibition of biofilm formation in Staphylococcus aureus USA300 assessed as decrease in green fluorescence at 0.06 to 0.13 ug/ml incubated for 24 hrs by SYTO 9 dye based CLSM analysis; format: functional, organism-based; conditions: dose 0.06-0.13 µg/ml
[24] = system: Staphylococcus aureus; assay: Induction of H2O2 accumulation in Staphylococcus aureus USA300 upto 0.25 ug/ml incubated for 5 hrs; format: functional, organism-based; conditions: dose <= 0.25 µg/ml
[25] = system: Klebsiella pneumoniae; assay: Bactericidal activity against Klebsiella pneumoniae 13b5; format: functional
[26] = system: Streptococcus suis; assay: Bactericidal activity against Streptococcus suis ZY05719 measured upto 24 hrs by time-kill assay; format: functional, organism-based
[27] = system: Staphylococcus aureus; assay: Upregulation of ATP level in Staphylococcus aureus USA300 upto 0.25 ug/ml incubated for 5 hrs; format: functional, organism-based; conditions: dose <= 0.25 µg/ml
[28] = system: Staphylococcus aureus; assay: Eradication of mature biofilm formation in Staphylococcus aureus USA300 incubated for 12 hrs by crystal violet staining based analysis; format: functional, organism-based
[29] = system: Staphylococcus aureus; assay: Antibacterial activity against Staphylococcus aureus USA300 assessed as acceleration of TCA cycle measured by increase in mqo mRNA level upto 0.25 ug/ml incubated for 6 hrs by RT-PCR analysis; format: functional, organism-based; conditions: dose <= 0.25 µg/ml
[30] = system: Staphylococcus aureus; assay: Bactericidal activity against methicillin-resistant Staphylococcus aureus MRSA 1; format: functional
[31] = system: Streptococcus suis; assay: Bactericidal activity against Streptococcus suis ZY05719; format: functional
[32] = system: Staphylococcus aureus; assay: Antibacterial activity against methicillin-resistant Staphylococcus aureus infected in BALB/c mouse wound model assessed as decrease in CD68 expression in skin tissue at 20 to 80 mg/kg administered topically on days 0, 3 and 6 measured after 12 days by IHC analysis; format: functional, organism-based; conditions: dose 20-80 mg/kg, route top, time 12.0 day
[33] = system: Staphylococcus aureus; assay: Antibacterial activity against Staphylococcus aureus ATCC 25923 incubated for 16 to 24 hrs by broth microdilution method; format: functional; conditions: time 16-24 hrs
[34] = system: Streptococcus suis; assay: Antibacterial activity against Streptococcus suis ZY05719 incubated for 16 to 24 hrs by broth microdilution method; format: functional; conditions: time 16-24 hrs
[35] = system: Staphylococcus aureus; assay: Antibacterial activity against methicillin-resistant Staphylococcus aureus infected in BALB/c mouse wound model assessed as increase in thickness of granulation tissue at 20 to 80 mg/kg administered topically on days 0, 3 and 6 measured for 6 to 12 days by H and E staining based analysis; format: functional, organism-based; conditions: dose 20-80 mg/kg, route top, time 6-12 day
[36] = system: Acinetobacter baumannii; assay: Antibacterial activity against Acinetobacter baumannii ATCC 17978 incubated for 16 to 24 hrs by broth microdilution method; format: functional; conditions: time 16-24 hrs
[37] = system: Staphylococcus aureus; assay: Disruption of cell membrane integrity in Staphylococcus aureus USA300 assessed as indistinct cytoplasmic borders at 4 to 8 times MIC by TEM/SEM analysis; format: functional, organism-based
[38] = system: A549; assay: Reversal of Staphylococcus aureus USA300-induced cytotoxicity in human A549 cells infected with bacteria assessed as cell viability upto 8 ug/ml preincubated with compound followed by […] infection for 5 hrs by LDH assay; format: functional, cell-based; conditions: dose <= 8.0 µg/ml
[39] = system: Staphylococcus aureus; assay: Antibacterial activity against Staphylococcus aureus USA400 incubated for 16 to 24 hrs by broth microdilution method; format: functional; conditions: time 16-24 hrs
[40] = system: J774.A1; assay: Cytotoxicity against mouse J774.A1 cells assessed as cell viability upto 8 ug/ml incubated for 6 hrs by LDH assay; format: toxicity, cell-based; conditions: j774.a1, 6 h, dose < 8 µg/ml
[41] = system: Escherichia coli; assay: Antibacterial activity against Escherichia coli […] incubated for 16 to 24 hrs by broth microdilution method; format: functional; conditions: time 16-24 hrs
[42] = system: Staphylococcus aureus; assay: Antibacterial activity against methicillin-resistant Staphylococcus aureus infected in BALB/c mouse wound model assessed as reversal of inflammation-induced IL-1beta level in wound at 20 to 80 mg/kg administered topically on days 0, 3 and 6 measured after 12 days by ELISA; format: functional, organism-based; conditions: dose 20-80 mg/kg, route top, time 12.0 day

## CCn1c(=O)c(C(=O)Nc2nnc(-c3ccc(C)cn3)s2)c(O)c2ccccc21
[1]
  Activity: inactive
[2]
  Activity: Non-toxic
[3]
  inhibition: Active
[4]
  MIC: 0.04 µg/mL (≈ 0.0982 µM)
[5]
  MIC: > 512 µg/mL
[6]
  Activity: Active
[7]
  MBC: > 512 µg/mL
[8]
  Activity: Active; Bacteria Were Suppressed Or Completely Eliminated
[9]
  Activity: Active
[10]
  MIC: 0.03 µg/mL (≈ 0.0736 µM)
[11]
  Activity: Non-toxic
[12]
  MIC: > 512 µg/mL
[13]
  MBC: 0.09 µg/mL (≈ 0.221 µM)
[14]
  inhibition: Active
[15]
  Activity: inactive
[16]
  MBC: 0.16 µg/mL (≈ 0.393 µM)
[17]
  Activity: Active
[18]
  Activity: Active
[19]
  Activity: Active
[20]
  Activity: Active
[21]
  Activity: Active
[22]
  MBC: 0.1 µg/mL (≈ 0.245 µM)
[23]
  inhibition: Active
[24]
  Activity: Active
[25]
  MBC: > 512 µg/mL
[26]
  Activity: Active; Bacteria Were Suppressed Or Completely Eliminated
[27]
  Activity: Active
[28]
  Activity: Active
[29]
  Activity: Active
[30]
  MBC: 0.05 µg/mL (≈ 0.123 µM)
[31]
  MBC: 0.1 µg/mL (≈ 0.245 µM)
[32]
  Activity: Active
[33]
  MIC: 0.03 µg/mL (≈ 0.0736 µM)
[34]
  MIC: 0.04 µg/mL (≈ 0.0982 µM)
[35]
  Activity: Active
[36]
  MIC: > 512 µg/mL
[37]
  Activity: Active
[38]
  Activity: Active
[39]
  MIC: 0.03 µg/mL (≈ 0.0736 µM)
[40]
  Activity: Non-toxic
[41]
  MIC: > 512 µg/mL
[42]
  Activity: Active

From ChEMBL document CHEMBL6121054, “Discovery of Metabolic Reprogramming 2-Quinolones as Effective Antimicrobials for MRSA-Infected Wound Therapy” (J Med Chem, 2025)
